Laboratory results: patent US11110105B2, “Compounds, composition and uses thereof for treating cancer” (INSTITUT GUSTAVE ROUSSY, priority 2017, dated 2021)
“Also recorded” adds a separate entry of the source.

Key:
[1] = test system: splicing of the Globin-SL8-intron gene product in B16F10 cells; assay: qRT-PCR of unspliced/spliced globin-SL8-intron RNA, B16F10; type: cell-based, mouse; conditions: 15 μM isoginkgetin, 35 μM IP2 or 35 μM M2P2, 48 hours
Procedure: RNA was extracted and qRT-PCR was performed with primers amplifying the unspliced (intron) and the spliced (exon) globin-SL8-intron RNA. Data are given as mean ±SEM of the ratio of 2^−ΔΔCt intron and 2^−ΔΔCt exon of at least three independent experiments. […] Data are express as mean ±SEM of the percentage of viable cells compared to the control condition of at least three independent experiments. *P<0.05, **P<0.01, ***P<0.001 (unpaired student t test).
In addition, it has been shown that cancer cells can acquire deficiencies in the splicing machinery that benefit their growth, for example by preventing the expression of tumor suppressor genes.

B16F10 WT tumor = assay: Tumor challenge, B16F10 WT in immunocompetent C57BL/6 mice; type: in vivo, mouse; conditions: 18 mg/kg intraperitoneally, days 5, 10 and 15 (FIG. 11D)
Procedure: (§1) (A) Experimental settings. Growth of (B) sarcoma MCA205 or (C) melanoma B16F10 cells that both stably express the globin-SL8-intron construct or (D) MCA205 Wild Type (WT) or (E) B16F10 WT cells that were subcutaneously inoculated on the flank of immunocompetent C57BL/6 mice injected intraperitoneally with 12 mg/kg or 18 mg/kg of isoginkgetin at days 5, 10 and 15 after inoculation. Tumor size was assessed every 3 to 4 days until reaching the established ethical endpoints. Each line represents the tumor size in area (mm^2) of 6 mice in each group. Size in area (mm^2) of (F) MCA205 globin-SL8-intron, (G) B16F10 globin-SL8-intron, (H) MCA205 WT or (I) B16F10 WT tumors subcutaneously inoculated on the flank of immunodeficient Nu/Nu Nude mice injected intraperitoneally with 18 mg/kg of isoginkgetin at days 5, 10 and 15 after inoculation. Data are presented at the day before the endpoints are reached.
Data are given as mean ±SEM. *P<0.05, **P<0.01, ***P<0.001 (unpaired student t test). […] Tumor size was assessed every 3 to 4 days until reaching the established ethical endpoints. […]
The SL8 peptide has been widely shown to be highly immunogenic in vivo. […] At days 5, 10 and 15 after tumor inoculation, the mice were injected intraperitoneally with a define dose of isoginkgetin, and the tumor growth was monitored (FIG. 9A). […]

B16F10 WT tumors = assay: Tumor challenge, B16F10 WT in immunodeficient Nu/Nu nude mice; type: in vivo, mouse; conditions: 18 mg/kg intraperitoneally, days 5, 10 and 15
Procedure: as §1
Each line represents the tumor size in area (mm^2) of at least 6 mice in each group. The C right panel represents the tumor size at day 27. […]
Inventors then assessed the requirement of the immune response for isoginkgetin to reduce tumor growth Immunodeficient Nu/Nu nude mice were inoculated subcutaneously with either MCA205 or B16F10 cells that stably express the Globin-intron-SL8 or WT, and were treated with the same settings as previously described (FIG. 9A). […]

[2] = MTT viability, mouse cell lines (text summary of table 2); type: cell-based; conditions: MCA205 sarcoma and B16F10 melanoma cells, MCA205 and B16F10, 6.25-25 μM, read-out: cell viability at efficient doses
Procedure: In parallel, the same experiment was performed on the mouse melanoma B16F10 and sarcoma MCA205 cell lines that were transiently expressing the Globin-SL8-intron construct. […] Efficient doses lead to cell viability over 50% in these cell lines (table 2).
MTT assay on MCA205 and B16F10 cell lines treated with 6.25 μM, 15 μM or 25 μM of isoginkgetin. Dare are given as the mean of the percentage of cell viability ±SEM from at least three independent experiments.

[3] = MTT assay on MRC5 cell line; type: cell-based; conditions: human, MRC5 fibroblast cells, read-out: % cell viability (±SEM)
Procedure: MCA205 mouse sarcoma cell line is cultured at 37° C. under 5% CO2 in RPMI 1640 medium (Life Technologies) in the presence of 1% glutamine, 1% sodium pyruvate, 1% non-essential amino-acids, 1% penicillin/streptomycin and 10% FBS (Life Technologies) under standard conditions. B16F10 mouse melanoma cell line, MRC5 human fibroblast cell line and A375 human melanoma cell line are cultured at 37° C. under 5% CO2 in DMEM medium (Life Technologies) containing 1% glutamine, 1% penicillin/streptomycin and 10% FCS under standard conditions. A549 human lung carcinoma cell line is cultured at 37° C. under 5% CO2 in DMEM/F12+Glutamax I in the presence of 1% Hepes, 1% sodium pyruvate and 10% FBS under standard conditions. Stable MCA205-Globin-SL8-intron cell line are cultured under the same condition as MCA205 cell line with additional 2 mg/ml G418 (geneticin from Life Technologies) for selection. Stable B16F10-Globin-SL8-intron cell line are cultured under the same condition as B16F10 cell line with additional 2 mg/ml G418 (geneticin from Life Technologies) for selection. The SL8/Kb-specific (B3Z) T-cell reporter hybridoma are cultured at 37° C. under 5% CO2 in RPMI 1640 medium (Life Technologies) in the presence of 1% glutamine, 0.1% β-galactosidase, 1% penicillin/streptomycin and 10% FCS under standard conditions. […]

Structure (SMILES): COc1ccc(-c2cc(=O)c3c(OC)cc(OP(=O)([O-])[O-])c(-c4cc(-c5cc(=O)c6c(OC)cc(OP(=O)([O-])[O-])cc6o5)ccc4OC)c3o2)cc1.[Na+].[Na+].[Na+].[Na+] [IM2P2]
- splicing of Globin-SL8-intron RNA (ratio unspliced/spliced, qRT-PCR) [1]: does not impact splicing; also recorded: no impact
- tumor growth (B16F10 WT tumor): did not impact tumor growth

Structure (SMILES): COc1ccc(-c2cc(=O)c3c(O)cc(O)c(-c4cc(-c5cc(=O)c6c(O)cc(O)cc6o5)ccc4OC)c3o2)cc1 [Isoginkgetin, isoginkgetin]
- tumor growth (B16F10 WT tumors): No effect
- viability [2]: > 50%
- viability at 2.5 µM ([3]; MRC5, 2.5 μM): 100%
- viability at 6.25 µM ([3]; MRC5, 6.25 μM): 100%
